# Measured values taken from PMC8129716 (CPT: Pharmacometrics & Systems Pharmacology, 2021).
# Experiments:
# CYP3A [1] = details: cited from earlier work
# CYP3A [2] = assay: PBPK simulation of zanubrutinib as perpetrator, midazolam; parameters: species or system human
# CYP3A [3] = details: midazolam 2 mg with/without zanubrutinib 160 mg b.i.d.; cited from earlier work
# CYP2C19 [4] = assay: PBPK simulation of zanubrutinib as perpetrator, omeprazole; parameters: species or system human
# CYP2C19 [5] = details: omeprazole 20 mg with/without zanubrutinib; cited from earlier work
# CYP2C9 [6] = assay: PBPK simulation of zanubrutinib as perpetrator, warfarin; parameters: species or system human
# CYP2C9 [7] = details: warfarin 10 mg with/without zanubrutinib; cited from earlier work
# CYP3A [8] = details: co-administration of itraconazole; cited from earlier work
structure (smiles),measurement,setting,value
O=C1Nc2ccc(Cl)cc2[C@@](C#CC2CC2)(C(F)(F)F)O1 [Efavirenz],simulated ribociclib AUC ratio (with/without inducer),CYP3A [1],0.40
"Cc1ncc2n1-c1ccc(Cl)cc1C(c1ccccc1F)=NC2 [midazolam, reference compound]",midazolam AUC ratio observed/predicted,CYP3A [2],1.02
same,"midazolam AUC ratio, observed (90% CI)",CYP3A [3],0.53 (0.48–0.57)
same,"midazolam Cmax ratio, observed (90% CI)",CYP3A [3],0.70 (0.63–0.78)
COc1ccc2[nH]c([S+]([O-])Cc3ncc(C)c(OC)c3C)nc2c1 (stereo not drawn) [omeprazole],omeprazole AUC ratio observed/predicted,CYP2C19 [4],0.67
same,omeprazole Cmax ratio observed/predicted,CYP2C19 [4],0.81
same,"omeprazole AUC ratio, observed (90% CI)",CYP2C19 [5],0.63 (0.5–0.70)
same,"omeprazole Cmax ratio, observed (90% CI)",CYP2C19 [5],0.79 (0.65–0.97)
CC(=O)CC(c1ccccc1)c1c(O)c2ccccc2oc1=O (stereo not drawn) [warfarin],warfarin AUC ratio observed/predicted,CYP2C9 [6],1.03
same,warfarin Cmax ratio observed/predicted,CYP2C9 [6],0.95
same,"warfarin AUC ratio, observed (90% CI)",CYP2C9 [7],1.00 (0.98–1.03)
same,"warfarin Cmax ratio, observed (90% CI)",CYP2C9 [7],0.95 (0.87–1.04)
CCC(C)n1ncn(-c2ccc(N3CCN(c4ccc(OCC5COC(Cn6cncn6)(c6ccc(Cl)cc6Cl)O5)cc4)CC3)cc2)c1=O (stereo not drawn) [itraconazole],increase of zanubrutinib AUC0-t,CYP3A [8],3.9 fold
same,increase of zanubrutinib Cmax,CYP3A [8],2.6 fold
NC(=O)N1c2ccccc2C=Cc2ccccc21 [Carbamazepine],simulated ribociclib AUC ratio (with/without inducer),CYP3A [1],0.48
